SMILES strings stand for the structures. Structures can show the parent of a compound that is named as a salt.

This assay concerns the target T1, MASP-2 (CCP1-CCP2-SP) (Homo sapiens, UniProt O00187).
T1 construct: 15 μL of Enzyme MASP-2 (CCP1-CCP2-SP) in Assay Buffer
The assay can be described thus: Enzymatic Assay for MASP-2 (fluorogenic substrate). The conditions noted are these: fluorogenic substrate based on C2 cleavage site; room temperature, 20 min; 20 mM HEPES pH 7.4, 140 mM NaCl, 0.1% Tween 20. The class given is biochemical. A digest of the protocol:
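Fluorogenic substrate built on the C2 cleavage site, in 20 mM HEPES pH 7.4, 140 mM NaCl, 0.1% Tween 20, run at room temperature for 20 min before an acetic acid stop. Fluorescence normalised to DMSO-only and no-enzyme controls; IC50 taken as equivalent to Ki, with tight- or slow-binding inhibitors treated separately.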

T1 sequence (O00187 445-686 limits assumed): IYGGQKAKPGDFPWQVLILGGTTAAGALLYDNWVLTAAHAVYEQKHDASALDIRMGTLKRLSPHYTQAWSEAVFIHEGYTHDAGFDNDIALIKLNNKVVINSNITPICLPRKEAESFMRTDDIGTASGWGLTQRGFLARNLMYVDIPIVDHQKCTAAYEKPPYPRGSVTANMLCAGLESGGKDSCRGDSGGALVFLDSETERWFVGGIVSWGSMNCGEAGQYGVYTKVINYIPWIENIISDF
T1 sequence (O00187 298-444 partner limits assumed): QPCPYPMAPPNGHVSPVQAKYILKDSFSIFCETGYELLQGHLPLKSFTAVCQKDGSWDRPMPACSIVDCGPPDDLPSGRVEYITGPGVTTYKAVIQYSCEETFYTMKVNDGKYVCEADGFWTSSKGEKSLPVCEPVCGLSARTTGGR

For `C[C@H](NC(=O)[C@H]1C[C@@H](c2ccc3ccccc3c2)CCN1)C(=O)NCc1ccc(C(=N)N)cc1` [Compound I-70, (2R,4S)—N—((S)-1-((4-Carbamimidoylbenzyl)Amino)-1-Oxopropan-2-Yl)-4-(Naphthalen-2-Yl)Piperidine-2-Carboxamide Di-Trifluoroacetate], the inhibition constant Ki was under 500 nM.
Consider `C[C@H](NC(=O)[C@H]1C[C@@H](c2cc3ccccc3s2)CCN1)C(=O)NCc1ccc(C(=N)N)cc1` [Compound I-71, (2R,4S)-4-(Benzo[B]Thiophen-2-Yl)-N—((S)-1-((4-Carbamimidoylbenzyl)Amino)-1-Oxopropan-2-Yl)Piperidine-2-Carboxamide Di-Trifluoroacetate], for which the Ki was under 500 nM.
`C[C@H](NC(=O)[C@H]1C[C@@H](c2ccc(-c3cccnc3)cc2)CCN1)C(=O)NCc1ccc(C(=N)N)cc1` [Compound I-72, (2R,4S)—N—((S)-1-((4-Carbamimidoylbenzyl)Amino)-1-Oxopropan-2-Yl)-4-(4-(Pyridin-3-Yl)Phenyl)Piperidine-2-Carboxamide Di-Trifluoroacetate] yielded a Ki of under 500 nM.
As to `C[C@H](NC(=O)[C@H]1C[C@@H](c2ccc(-c3cccnc3)cc2)CCN1)C(=O)NCc1cc2cnccc2[nH]1` [Compound I-73, (2R,4S)—N—((S)-1-(((1H-Pyrrolo[3,2-C]Pyridin-2-Yl)Methyl)Amino)-1-Oxopropan-2-Yl)-4-(4-(Pyridin-3-Yl)Phenyl)Piperidine-2-Carboxamide Tri-Trifluoroacetate], the Ki was under 500 nM.
For `C[C@H](NC(=O)[C@H]1C[C@@H](c2ccc(-c3ccccc3)cc2)CCN1)C(=O)NCc1cc2cnccc2[nH]1` [Compound I-74, (2R,4S)—N—((S)-1-(((1H-Pyrrolo[3,2-C]Pyridin-2-Yl)Methyl)Amino)-1-Oxopropan-2-Yl)-4-([1,1′-Biphenyl]-4-Yl)Piperidine-2-Carboxamide Di-Trifluoroacetate], the Ki was under 500 nM.
Regarding `Cc1cc(C)n(-c2ccc([C@H]3CCN[C@@H](C(=O)N[C@@H](C)C(=O)NCc4ccc(C(=N)N)cc4)C3)cc2)n1` [Compound I-75, (2R,4S)—N—((S)-1-((4-Carbamimidoylbenzyl)Amino)-1-Oxopropan-2-Yl)-4-(4-(3,5-Dimethyl-1H-Pyrazol-1-Yl)Phenyl)Piperidine-2-Carboxamide Dihydrochloride], the Ki is under 500 nM.
The same measure for `C[C@H](NC(=O)[C@H]1C[C@@H](c2ccc(N3CCOCC3)cc2)CCN1)C(=O)NCc1ccc(C(=N)N)cc1` [Compound I-76, (2R,4S)—N—((S)-1-((4-Carbamimidoylbenzyl)Amino)-1-Oxopropan-2-Yl)-4-(4-Morpholinophenyl)Piperidine-2-Carboxamide Dihydrochloride]: under 500 nM; for `C[C@H](NC(=O)[C@H]1C[C@@H](c2cccc(-n3cccn3)c2)CCN1)C(=O)NCc1ccc(C(=N)N)cc1` [Compound I-77, (2R,4S)-4-(3-(1H-Pyrazol-1-Yl)Phenyl)-N—((S)-1-((4-Carbamimidoylbenzyl)Amino)-1-Oxopropan-2-Yl)Piperidine-2-Carboxamide Dihydrochloride]: under 500 nM; for `Cc1nc(N)ccc1CNC(=O)[C@H](C)NC(=O)[C@H]1C[C@@H](c2cccc(-n3cccn3)c2)CCN1` [Compound I-78, (2R,4S)-4-(3-(1H-Pyrazol-1-Yl)Phenyl)-N—((S)-1-(((6-Amino-2-Methylpyridin-3-Yl)Methyl)Amino)-1-Oxopropan-2-Yl)Piperidine-2-Carboxamide Dihydrochloride]: under 500 nM.
Then `C[C@H](NC(=O)[C@H]1C[C@@H](c2cccc(-n3cccn3)c2)CCN1)C(=O)NCc1cc(Cl)ccc1-n1cnnn1` [Compound I-79, (2R,4S)-4-(3-(1H-Pyrazol-1-Yl)Phenyl)-N—((S)-1-((5-Chloro-2-(1H-Tetrazol-1-Yl)Benzyl)Amino)-1-Oxopropan-2-Yl)Piperidine-2-Carboxamide Dihydrochloride], with under 500 nM.
`C[C@H](NC(=O)[C@H]1C[C@@H](c2cccc(-n3cccn3)c2)CCN1)C(=O)NCc1cc2cnccc2[nH]1` [Compound I-80, (2R,4S)-4-(3-(1H-Pyrazol-1-Yl)Phenyl)-N—((S)-1-(((1H-Pyrrolo[3,2-C]Pyridin-2-Yl)Methyl)Amino)-1-Oxopropan-2-Yl)Piperidine-2-Carboxamide Dihydrochloride] yielded a Ki of under 500 nM.
As to `Cc1nc(N)ccc1CNC(=O)[C@H](C)NC(=O)[C@H]1C[C@H](Cc2cccc(-c3ccc(F)cc3)c2)CN1` [Compound I-81, (2R,4S)—N—((S)-1-(((6-Amino-2-Methylpyridin-3-Yl)Methyl)Amino)-1-Oxopropan-2-Yl)-4-((4′-Fluoro-[1,1′-Biphenyl]-3-Yl)Methyl)Pyrrolidine-2-Carboxamide Di-Trifluoroacetate], the Ki is under 500 nM.
Molecule `C[C@H](NC(=O)[C@H]1C[C@H](Cc2cccc(Cl)c2)CN1)C(=O)NCc1cnc2[nH]cc(Cl)c2c1` [Compound I-82, (2R,4S)—N—((S)-1-(((3-Chloro-1H-Pyrrolo[2,3-B]Pyridin-5-Yl)Methyl)Amino)-1-Oxopropan-2-Yl)-4-(3-Chlorobenzyl)Pyrrolidine-2-Carboxamide Dihydrochloride] yielded a Ki of under 500 nM.
Then `C[C@H](NC(=O)[C@H]1C[C@H](Cc2ccc(Cl)s2)CN1)C(=O)NCc1cnc2[nH]cc(Cl)c2c1` [Compound I-83, (2R,4R)—N—((S)-1-(((3-Chloro-1H-Pyrrolo[2,3-B]Pyridin-5-Yl)Methyl)Amino)-1-Oxopropan-2-Yl)-4-((5-Chlorothiophen-2-Yl)Methyl)Pyrrolidine-2-Carboxamide Dihydrochloride], with under 500 nM.
`C[C@H](NC(=O)[C@H]1C[C@H](Cc2ccc(Cl)s2)CN1)C(=O)NCc1cnc2c(c1)c(Cl)cn2C` [Compound I-84, (2R,4R)—N—((S)-1-(((3-Chloro-1-Methyl-1H-Pyrrolo[2,3-B]Pyridin-5-Yl)Methyl)Amino)-1-Oxopropan-2-Yl)-4-((5-Chlorothiophen-2-Yl)Methyl)Pyrrolidine-2-Carboxamide Dihydrochloride]: the Ki is under 500 nM.
For `Cc1nc(N)ccc1CNC(=O)[C@H](C)NC(=O)[C@H]1C[C@H](Cc2ccc3c(C)cccc3c2)CN1` [Compound I-85, (2R,4S)—N—((S)-1-(((6-Amino-2-Methylpyridin-3-Yl)Methyl)Amino)-1-Oxopropan-2-Yl)-4-((5-Methylnaphthalen-2-Yl)Methyl)Pyrrolidine-2-Carboxamide Dihydrochloride], the Ki was under 500 nM.
Then `Cc1nc(N)ccc1CNC(=O)[C@H](C)NC(=O)[C@H]1C[C@H](Cc2ccc(C#N)s2)CN1` [Compound I-86, (2R,4R)—N—((S)-1-(((6-Amino-2-Methylpyridin-3-Yl)Methyl)Amino)-1-Oxopropan-2-Yl)-4-((5-Cyanothiophen-2-Yl)Methyl)Pyrrolidine-2-Carboxamide Dihydrochloride], with under 500 nM; and `Cc1nc(N)ccc1CNC(=O)[C@H](C)NC(=O)[C@H]1C[C@H](Cc2cc(Cl)cs2)CN1` [Compound I-87, (2R,4R)—N—((S)-1-(((6-Amino-2-Methylpyridin-3-Yl)Methyl)Amino)-1-Oxopropan-2-Yl)-4-((4-Chlorothiophen-2-Yl)Methyl)Pyrrolidine-2-Carboxamide Dihydrochloride], with under 500 nM.
As for `Cc1nc(N)ccc1CNC(=O)[C@H](C)NC(=O)[C@H]1C[C@H](Cc2ccc(F)c(Cl)c2F)CN1` [Compound I-88, (2R,4S)—N—((S)-1-(((6-Amino-2-Methylpyridin-3-Yl)Methyl)Amino)-1-Oxopropan-2-Yl)-4-(3-Chloro-2,4-Difluorobenzyl)Pyrrolidine-2-Carboxamide Dihydrochloride], the Ki is under 500 nM.
As for `Cc1nc(N)ccc1CNC(=O)[C@H](C)NC(=O)[C@H]1C[C@H](Cc2ccc(C(F)(F)F)s2)CN1` [Compound I-89, (2R,4R)—N—((S)-1-(((6-Amino-2-Methylpyridin-3-Yl)Methyl)Amino)-1-Oxopropan-2-Yl)-4-((5-(Trifluoromethyl)Thiophen-2-Yl)Methyl)Pyrrolidine-2-Carboxamide Dihydrochloride], the Ki was under 500 nM.
Then `C[C@H](NC(=O)[C@H]1C[C@@H](c2ccccc2)CCN1)C(=O)NCc1cc2cnccc2[nH]1` [Compound I-90, (2R,4S)—N—((S)-1-(((1H-Pyrrolo[3,2-C]Pyridin-2-Yl)Methyl)Amino)-1-Oxopropan-2-Yl)-4-Phenylpiperidine-2-Carboxamide Di-Trifluoroacetate], with under 500 nM; and `C[C@H](NC(=O)[C@H]1C[C@@H](c2ccccc2)CCN1)C(=O)NCc1ccc(C(=N)N)s1` [Compound I-91, (2R,4S)—N—((S)-1-(((5-carbamimidoylthiophen-2-yl)methyl)amino)-1-oxopropan-2-yl)-4-phenylpiperidine-2-carboxamide di-trifluoroacetate], with under 500 nM; and `C[C@H](NC(=O)[C@H]1C[C@@H](c2ccccc2)CCN1)C(=O)NCc1ccc(C#N)s1` [Compound I-92, (2R,4S)—N—((S)-1-(((5-Cyanothiophen-2-yl)methyl)amino)-1-oxopropan-2-yl)-4-phenylpiperidine-2-carboxamide hydrochloride], with 2500 to 10000 nM.
The same measure for `C[C@H](NC(=O)[C@H]1C[C@H](c2cccc(CO)c2)CN1)C(=O)NCc1ccc(C(=N)N)cc1` [Compound I-94, (2R,4R)—N—((S)-1-((4-Carbamimidoylbenzyl)Amino)-1-Oxopropan-2-Yl)-4-(3-(Hydroxymethyl)Phenyl)Pyrrolidine-2-Carboxamide Di-Trifluoroacetate]: under 500 nM; for `C[C@H](NC(=O)[C@H]1C[C@@H](c2ccncc2)CN1)C(=O)NCc1ccc(C(=N)N)cc1` [Compound I-95, (2R,4S)—N—((S)-1-((4-carbamimidoylbenzyl)amino)-1-oxopropan-2-yl)-4-(pyridin-4-yl)pyrrolidine-2-carboxamide di-trifluoroacetate]: 500 to 2500 nM.

The term Ki denotes the dissociation constant of the complex between target and ligand, obtained from inhibition or displacement. Lower therefore signals tighter binding.

The values are drawn from patent publication US12486278B2, “MASP-2 inhibitors and methods of use” (Omeros Corporation, priority 2019, dated 2025).
